# Reference: PubChem BioAssay AID1645863 (Buhrlage Lab, Dana-Farber Cancer Institute and Novartis …, 2021)
# Calls of active or inactive are those of the source. No rule for the calls is given here.
# Target: Ubiquitin carboxyl-terminal hydrolase 10 (Homo sapiens) (UniProt Q14694)
# Test: primary hit verification, biochemical, ubiquitin-specific protease 10 deubiquitylase inhibitors, concentration-effect titration (AID 1645863);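 also: potency values describe inhibition of USP10 cleavage of a fluorogenic ubiquitin substrate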
# Conditions: USP10 deubiquitinase enzymatic assay
# Ubiquitin carboxyl-terminal hydrolase 10 (Homo sapiens), sequence (Q14694 whole entry, looked up): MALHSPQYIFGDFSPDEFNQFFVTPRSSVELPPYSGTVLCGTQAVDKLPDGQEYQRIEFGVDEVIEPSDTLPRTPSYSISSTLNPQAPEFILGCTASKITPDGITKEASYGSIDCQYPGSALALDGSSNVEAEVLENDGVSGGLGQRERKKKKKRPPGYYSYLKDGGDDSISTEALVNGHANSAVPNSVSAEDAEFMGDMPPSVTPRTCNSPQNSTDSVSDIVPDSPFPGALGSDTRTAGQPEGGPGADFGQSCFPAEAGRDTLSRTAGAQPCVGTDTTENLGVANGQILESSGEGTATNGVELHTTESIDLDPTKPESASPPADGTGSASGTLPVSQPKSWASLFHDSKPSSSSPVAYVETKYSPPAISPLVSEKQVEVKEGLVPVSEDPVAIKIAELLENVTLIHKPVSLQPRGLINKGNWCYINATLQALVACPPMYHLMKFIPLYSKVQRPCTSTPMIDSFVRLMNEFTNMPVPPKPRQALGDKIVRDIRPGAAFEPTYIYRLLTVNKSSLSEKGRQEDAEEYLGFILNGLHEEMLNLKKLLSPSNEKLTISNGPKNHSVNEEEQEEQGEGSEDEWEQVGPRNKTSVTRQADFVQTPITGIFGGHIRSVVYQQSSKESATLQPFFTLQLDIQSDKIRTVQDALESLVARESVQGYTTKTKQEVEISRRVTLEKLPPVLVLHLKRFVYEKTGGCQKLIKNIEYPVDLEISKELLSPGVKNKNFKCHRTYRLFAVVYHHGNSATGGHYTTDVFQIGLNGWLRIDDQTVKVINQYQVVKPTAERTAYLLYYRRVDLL
row,SMILES,IC50
1,O=C(c1cccc2ncccc12)N1CCN(c2ccnc3cc(Cl)ccc23)CC1,> 40 µM (inactive)
2,O=C(CSc1ccc2nnc(-c3ccc(Cl)cc3)n2n1)N1CCCCC1,> 40 µM (inactive)
3,CCNS(=O)(=O)c1ccc(-c2ccc(-n3cnnn3)cc2)cc1,> 40 µM (inactive)
4,Cc1cc(OCC(=O)Nc2ccc3c(c2)NC(=O)CO3)ccc1Cl,15.5 µM
5,Cc1cc(NC(=O)CN2CCCN(S(=O)(=O)c3ccc(F)cc3)CC2)ccc1Br,> 40 µM (inactive)
6,O=C(/C=C/c1ccc(Br)cc1)Nc1cnc2ccccc2c1,39.5 µM
7,COc1ccc(-c2nc(-c3cc4cc(OC)ccc4[nH]c3=O)no2)cc1,> 40 µM (inactive)
8,CCn1cc2c(n1)c(=O)n(Cc1ccc(C)cc1)c(=O)n2CC(=O)Nc1ccc(F)cc1,> 40 µM (inactive)
9,Cc1ccccc1NC(=O)Cn1c(=O)n(-c2ccc(CC(=O)NCCc3ccccc3)cc2)c(=O)c2sccc21,12.8 µM
10,CSc1nc(N)c2c(n1)N[C@H]1OC[C@H](O)[C@H](O)[C@H]1N2,> 40 µM (inactive)
11,CCCc1ccc(C(=O)[C@@H]2[C@@H](C(=O)c3cccs3)N3c4ccc(C)cc4C(C)=C[C@@H]3[C@@]23C(=O)Nc2ccccc23)cc1,> 40 µM (inactive)
12,Cc1c(C(=O)Nc2ccc(Oc3ccccc3)cc2)nnn1-c1cccc(Cl)c1,> 40 µM (inactive)
13,CC(NC(=O)c1nc2n(n1)-c1ccccc1S(=O)(=O)N2)c1cc2ccccc2o1 (stereo unspecified),30.7 µM
14,Cc1c(-c2nc(-c3ccccc3Cl)no2)nnn1-c1cccc(F)c1,> 40 µM (inactive)
15,Fc1cccc(Nc2nc(-c3ccccn3)nc3ccccc23)c1,> 40 µM (inactive)
16,Brc1ccc(Nc2nc(-c3ccccn3)nc3ccccc23)cc1,21 µM
17,COc1ccc([N+](=O)[O-])cc1NC(=O)COC(=O)c1ccc2[nH]c3c(c2c1)CCCC3,18.3 µM
18,CCn1c(CNC(=O)c2cccc(C)c2)nnc1SCC(=O)N1CCc2ccccc21,> 40 µM (inactive)
19,Cc1ccc2c(CNCCC3=CCCCC3)c(C(=O)O)n(C)c2c1,> 40 µM (inactive)
20,CCn1c(SCC(=O)c2c(N)n(CC(C)C)c(=O)n(C)c2=O)nnc1-c1ccccc1,> 40 µM (inactive)
21,Cc1ccc(NC(=O)COc2ccccc2/C=C2/NC(=O)N(Cc3ccc(F)cc3)C2=O)cc1,> 40 µM (inactive)
22,COc1ccc(OCCn2c(C3CC(=O)N(c4cccc(C)c4)C3)nc3ccccc32)cc1 (stereo unspecified),15.2 µM
23,COc1cccc(C(=O)Nc2ccc(SC(C(=O)Nc3ccccc3)c3ccccc3)cc2)c1 (stereo unspecified),> 40 µM (inactive)

row,SMILES,IC50
1,O=C(Cn1cc(C(=O)C(F)(F)F)c2cc(Br)ccc21)N1CCc2ccccc21,35.6 µM
2,Cc1ccc(CS(=O)(=O)c2cn(CC(=O)NCCc3ccccc3)c3ccccc23)cc1,> 40 µM (inactive)
3,O=C(CCCCCn1c(=O)c2sccc2n(CC(=O)c2ccc(Cl)c(Cl)c2)c1=O)NCc1ccc2c(c1)OCO2,10.6 µM
4,Cc1cccc(-c2nnn3c2nc(NCC2CCCO2)c2ccccc23)c1 (stereo unspecified),> 40 µM (inactive)
5,COc1ccc(C(=O)Nc2nc(-c3ccc4c(c3)NC(=O)CO4)c(C)s2)cc1OC,> 40 µM (inactive)
6,O=C(CCCCn1c(=O)[nH]c2ccccc2c1=O)Nc1cccc(Cl)c1,> 40 µM (inactive)
7,Cc1cccc(Cl)c1NC(=O)Nc1ccc(NC(=O)c2ccccc2O)cc1,13.2 µM
8,COc1ccc(COc2ccc3c(C)c(CC(=O)N4CC[C@@]5(O)CCCC[C@H]5C4)c(=O)oc3c2)cc1,> 40 µM (inactive)
9,C=C[C@]1(C)CC[C@]2(C)[C@@H](C1)[C@@H](O)C[C@H]1[C@]3(C)CCC[C@@]12OC3=O,> 40 µM (inactive)
10,CN1CCc2c(C#N)c(N3CCOCC3)nc(NCC3CCCO3)c2C1 (stereo unspecified),> 40 µM (inactive)
11,Cc1ccc(NC(=O)Nc2nnc(CC(=O)NCc3ccccc3)s2)cc1F,> 40 µM (inactive)
12,CCOc1ccc(S(=O)(=O)Nc2ccc[nH]c2=O)cc1,> 40 µM (inactive)
13,NS(=O)(=O)c1ccc(CNS(=O)(=O)/C=C/c2ccccc2)cc1,> 40 µM (inactive)
14,CCCC(O)CCCCCCCc1cc(O)cc(O)c1C(=O)OC(CCC)CCCCCCCc1cc(O)cc(O)c1 (stereo unspecified),21.8 µM
15,CCC(=O)Nc1nc2cc(NC(=O)Nc3ccc(C)cc3)ccc2s1,> 40 µM (inactive)
16,FC(F)(F)c1cccc(Nc2nc(-c3ccccn3)nc3ccccc23)c1,> 40 µM (inactive)
17,COc1ccc(N2CC(c3nnc(NC(=O)CCc4ccccc4)s3)CC2=O)cc1 (stereo unspecified),> 40 µM (inactive)
18,Cc1ccc(-c2cc(=O)n(CC(=O)Nc3ccc(C(C)C)cc3)cn2)cc1,> 40 µM (inactive)
19,Cc1ccc(N2CC(c3nnc(NC(=O)CCc4ccccc4)s3)CC2=O)cc1 (stereo unspecified),> 40 µM (inactive)
20,COc1ccc(Cl)cc1NC(=O)Cn1c(=O)n(CCCCC(=O)NCCc2ccccc2)c(=O)c2ccccc21,13.4 µM
21,COC(=O)Nc1cccn(Cc2c(Cl)cccc2Cl)c1=O,> 40 µM (inactive)
22,Cc1ccc(-n2nc(C)c3c2NC(=O)CC3C(=O)c2cc3ccccc3o2)cc1 (stereo unspecified),> 40 µM (inactive)
23,CS(=O)(=O)c1ccc2nc(N(Cc3cccnc3)C(=O)c3ccc4ccccc4c3)sc2c1,> 40 µM (inactive)

row,SMILES,IC50
1,O=C(Cn1c(=O)n(CC2CCC(C(=O)NC3CCCC3)CC2)c(=O)c2ccccc21)NCCC1=CCCCC1 (stereo unspecified),> 40 µM (inactive)
2,O=C(Nc1ccc(Cl)cc1F)c1cc(-c2ccccn2)n[nH]1,> 40 µM (inactive)
3,COc1ccc(-c2nc(-c3nnn(Cc4ccc(F)cc4)c3C)no2)c(OC)c1,> 40 µM (inactive)
4,Cc1ccc(CC(=O)Nc2ccc(C)cc2-c2n[nH]c(C3CC3)n2)cc1,> 40 µM (inactive)
5,Cc1cc(N2CCN(c3ncccn3)CC2)nc2ccc(NC(=O)Cn3nc([N+](=O)[O-])c(Br)c3C)cc12,> 40 µM (inactive)
6,CCOc1ccc2c(c1)c(=O)c(C(=O)c1ccc(C)cc1)cn2CC(=O)Nc1ccc(C)cc1,> 40 µM (inactive)
7,CSc1nc2ncn(CC(=O)Nc3ccc(Br)cc3)c(=O)c2s1,> 40 µM (inactive)
8,Cc1cc(C)c(NC(=O)Cn2c(SCc3cccc(F)c3)nc3cccnc32)c(C)c1,> 40 µM (inactive)
9,CCc1cccc(CC)c1NC(=O)COC(=O)c1cc2cccc(OC)c2oc1=O,> 40 µM (inactive)
10,N#Cc1ccccc1NC(=O)c1cc2c(s1)-c1ccccc1S(=O)(=O)C2,34.6 µM
11,O=C(CCSc1ccc(Cl)cc1)c1cccs1,> 40 µM (inactive)
12,COc1ccccc1NC(=O)CSC1=NC2(CCCCC2)Nc2ccccc21,> 40 µM (inactive)
13,CCCn1cc(C(=O)N2CCC3(CC2)CC2(CO3)Nc3ccccc3-n3cccc32)c(C)n1 (stereo unspecified),> 40 µM (inactive)
14,N#Cc1cccnc1N1CCN(C(=O)Nc2cccc3ccccc23)CC1,> 40 µM (inactive)
15,Cc1cccc(C)c1NC(=O)CN1C(=O)CC(c2ccccc2)=Nc2ccccc21,26.4 µM
16,Cc1cc(C(=O)Nc2cc([N+](=O)[O-])cc3oc(-c4ccccc4)cc23)on1,> 40 µM (inactive)
17,CC(C)[C@H]1CC[C@@]2(CO2)[C@H]2C(=O)OCC(C(=O)O)=C[C@H]12,21.7 µM
18,O=C(c1cnccn1)N1CC[C@@H]2CNS(=O)(=O)[C@@H]2CC1,> 40 µM (inactive)
19,Cn1cc(-c2nc(C(=O)Nc3ccc(C#N)cc3)cs2)c2cccnc21,> 40 µM (inactive)
20,c1ccc(CNc2ccc(-c3ccccc3)nn2)cc1,> 40 µM (inactive)
21,COc1cc(NS(=O)(=O)c2ccc(NC(=O)COc3ccc(C)cc3Br)cc2)nc(OC)n1,38.6 µM
22,COc1ccc(-c2cc(-c3ccc(F)cc3)[nH]c(=O)c2C#N)cc1,18.3 µM
23,CC(CCc1ccccc1)NC(=O)Cn1c(=O)c2cccn2c2ccccc21 (stereo unspecified),> 40 µM (inactive)

row,SMILES,IC50
1,CCOc1ccc2c(c1)c(=O)c(C(=O)c1ccccc1)cn2CC(=O)Nc1ccc2c(c1)OCCO2,22.5 µM
2,CCc1ccc(-n2c(C)cc(/C=C3\C(=N)N4N=CSC4=NC3=O)c2C)cc1,> 40 µM (inactive)
3,CSc1cccc(NC(=O)C2C3C=CC4(O3)C2C(=O)N(CCc2ccccc2)C4C(=O)NC2CCCCC2)c1 (stereo unspecified),> 40 µM (inactive)
4,O=C(CNC(=O)OCc1ccccc1)Nc1ccc(Br)cc1C(=O)c1ccccc1Cl,> 40 µM (inactive)
5,Cc1ccc2[nH]cc(S(=O)(=O)c3cc(F)cc(F)c3)c(=O)c2c1,> 40 µM (inactive)
6,Fc1cccc(Nc2ncnc3c2oc2ccccc23)c1,> 40 µM (inactive)
7,Cc1noc(-c2cc(=O)n(CC(=O)Nc3ccccc3Cl)c3ccccc23)n1,14.4 µM
8,O=C(COC(=O)c1cc2c(s1)CCC2)c1ccc2[nH]c(=O)[nH]c2c1,> 40 µM (inactive)
9,CC(C)CCCCCCCCCCC(=O)N(C)[C@H](CO)C(=O)N[C@H](C)C(=O)NCC(=O)N(C)C1C(=O)N[C@@H](C)C(=O)NC(C(=O)O)Cc2ccc(O)c(c2)-c2cc1ccc2O (stereo partly specified),34.4 µM
10,COc1cc2c(c(OC)c1OC)-c1ccc(NCCc3cccc(F)c3)c(=O)cc1[C@@H](NC(C)=O)CC2,> 40 µM (inactive)
11,O=C(Cn1cc(C(=O)c2ccccc2)c(=O)c2cc(F)ccc21)Nc1ccc2c(c1)OCCO2,> 40 µM (inactive)
12,O=C1NC(=O)/C(=C/c2ccc(OC(=O)c3ccc(Cl)cc3Cl)cc2)N1,22.1 µM
13,Cn1c(CCNC(=O)c2[nH]nc3c2CCc2ccccc2-3)nc2ccccc21,36.1 µM
14,CN1CCC(N2CCN(C(=O)C3CCCN(c4cnc5nccnc5c4)C3)CC2)CC1 (stereo unspecified),> 40 µM (inactive)
15,N#Cc1cn2c(nc1-c1ccc(Cl)cc1)nc1ccccc12,19.5 µM
16,Cc1cc(C)c(C#N)c(N2CCN(CCOc3ccc(Cl)cc3)CC2)n1,> 40 µM (inactive)
17,COc1ccc(NC(=O)CC(=O)c2ccc([N+](=O)[O-])cc2)cc1S(=O)(=O)Nc1ccc(Br)cc1,22.9 µM
18,O=C(O)c1cccc(NC(=O)C(Sc2cccc(NC(=O)c3cccc(Cl)c3)c2)c2ccccc2)c1 (stereo unspecified),9.91 µM
19,COc1cccc(NC(=O)CCc2nnc3n(CCCOC(C)C)c(=O)c4ccccc4n23)c1,> 40 µM (inactive)
20,Cc1ccc(NC(=O)Nc2ccccc2OCc2cc(=O)n3cc(C)ccc3n2)cc1,> 40 µM (inactive)
21,O=C(/C=C/c1ccc(F)cc1)N1CCc2ccccc2C1,> 40 µM (inactive)
22,Cc1ccc(NCc2cc3c(-c4cccc(F)c4)nn(-c4ccccc4)c3[nH]c2=O)cc1C,> 40 µM (inactive)
